Values quoted from earlier work in patent US20090092657A1, “Amino acid combinant omega oil aphrodisiac” (priority 2007, published 2009).

Experiments:
[1] = for erection after injection: injected directly into the corpus cavernosum using a hypodermic needle; for duration of erection: intracavernosal injection, appropriate dose
[2] = 1989 outbreak traced to L-tryptophan supplied by Showa Denko KK
[3] = buccal administration of 100 I.U. three times a day for 14 days

Compound	erection after injection [1]	also measured
CC(COc1ccccc1)N(CCCl)Cc1ccccc1 (centres unmarked) [phenoxybenzamine]	caused erection	duration of erection [1]: unrelenting erection lasting for hours
Cc1ccc(N(CC2=NCCN2)c2cccc(O)c2)cc1 [phentolamine]	caused erection	–
COc1ccc(Cc2nccc3cc(OC)c(OC)cc23)cc1OC [papaverine]	caused erection	duration of erection [1]: unrelenting erection lasting for hours
N[C@@H](Cc1c[nH]c2ccccc12)C(=O)O [L-tryptophan]	–	cases of eosinophilia-myalgia syndrome (EMS) in the outbreak [2]: 1500 cases; deaths in the EMS outbreak [2]: at least 37 deaths
CCN(CC)CCOC(=O)C(Cc1cccc2ccccc12)CC1CCCO1 (mixture of isomers) [naftidrofuryl]	caused erection	–
CN(C)CCCN1c2ccccc2CCc2ccccc21 [imipramine]	caused erection	–
CC[C@H](C)[C@@H]1NC(=O)[C@H](Cc2ccc(O)cc2)NC(=O)[C@@H](N)CSSC[C@@H](C(=O)N2CCC[C@H]2C(=O)N[C@@H](CC(C)C)C(=O)NCC(N)=O)NC(=O)[C@H](CC(N)=O)NC(=O)[C@H](CCC(N)=O)NC1=O [oxytocin]	–	improvement of impotentia erectionis, patients improved of patients treated [3]: 12 of the 16
CC(=O)Oc1cc(C(C)C)c(OCCN(C)C)cc1C [thymoxamine]	caused erection	–
